Experimental data: patent US8143307B2, “Benzothiophen-2-carbonylguanidine derivatives, preparation thereof, and pharmaceutical composition containing the same” (Korea Research Institute of Chemical Technology, priority 2004, dated 2012)

Assays:
[1] = test system: isolated ischemic rat heart; assay: Cardioprotective effect in isolated ischemic rat heart model (Langendorff); details: 10 μM, 30 min global ischemia, 30 min reperfusion
Procedure: Male rats (300 450 g, the Korea Research Institute of Chemical Technology, Experimental Animal Lab) were anesthetized by intraperitoneal injection with sodium pentobarbital at a dose of 100 mg/kg and were intravenously administered with heparine at a dose of 1000 U/kg, followed by the excision of the heart. In detail, a tracheotomy was performed and a tracheal cannula (PE 240) was inserted into the trachea for subsequent artificial ventilation with room air using a rodent ventilator. […] A catheter tip manometer connected to a latex balloon filled with a mixture of ethanol and distilled water (1:1 v/v) was inserted via an incision in the left atrium into the left ventricle, and the intraventricular pressure thereof transmitted to the latex balloon was measured isovolumetrically with a transducer and recorded on a recording system (Linearcorder mark 8 WR 3500) with the aid of an amplifier (Plugsys bridge amplifier). After stabilizing the heart for 15 min, the balloon volume was adjusted to create a left ventricular end-diastolic pressure (LVEDP) of 5 mmHg during the initial baseline period. The volume of the balloon was maintained until the end of the experiment. Baseline heart contraction function, spontaneous heart rate (HR) and coronary flow (CF) were determined from the left ventricular contraction interval. The left ventricular developed pressure (LVDP), which is regarded as an index of contractile function of the isolated heart, was calculated by subtracting left ventricular end-diastolic pressure (LVEDP) from left ventricular peak systolic pressure (LVSP). In contrast to the heart in the body, the Langendorff heart cannot be measured for cardiac output and thus, RPP (rate-pressure product), which is an important indirect indicator for cardiac performance, was calculated by multiplying heart rate (HR) by LVDP. Throughout the experiment, the temperature of the heart was maintained constant by […] in a 37° C. physiological solution to which 95% O2/5% CO2 was continuously supplied. The heart thus stabilized was perfursed for 10 min with a solution of the compounds of the invention or control drugs in DMSO (dimethylsulfoxide) diluted with HBS (final DMSO conc. 0.04%), or with the solvent only (a negative control; 0.04% DMSO) and then measured again for contractile function, heart rate (HR) and coronary flow (CF). The supply of perfusates was completely stopped for 30 min in order to induce global ischemia in the heart, followed by reperfusion for 30 min. The indices (LVDP, HR, LVEDP, and CF) were measured again. After the reperfusion, the total level of lactate dehydrogenase (LDH) in the reperfusates was measured using a kit and taken as an index of ischemic myocardial injury. A negative control group was treated with the solvent only while cariporide was used as a positive control.

[2] = test system: in vivo ischemic rat heart model; assay: Cardioprotective effect on in vivo ischemic rat heart model (coronary occlusion/reperfusion, infarct size); details: 45 min occlusion, 90 min reperfusion
Procedure: The cardioprotective effect of the benzothiophen-2-carbonylguanidine derivatives according to the present invention in in vivo ischemic hearts was judged with regard to their antischemic effects (myocardiac infarction reduction) on rats as follows.
Each male rat (300˜450 g, the Korea Research Institute of Chemical Technology, Experimental Animal Lab) was anesthetized by intraperitoneal injection with sodium pentobarbital at a dose of 75 mg/kg. Tracheotomy was performed and a tube was inserted into the trachea for subsequent artificial ventilation with a stroke volume of 10 ml/kg and a respiratory rate of 60 breaths/min. The femoral vein and the femoral artery were cannulated for the administration of the compounds and for the measurement of blood pressures, respectively. Meanwhile, the body temperature of the rats, an important factor to influence experimental results in the ischemic myocardiac injury model, was maintained constant at 37° C. using a homeothermic blanket control unit, with a body temperature-monitoring probe inserted into the rectum. Subsequently, rats were continuously measured for mean arterial blood pressure and heart rate HR throughout the experimental time period using a Statham P23XL pressure transducer (Grass Ins., Mass., USA) and an ECG/RATE Coupler (Hugo Sachs Electronic, Germany), respectively, with all continuous changes thereof recorded by Graphtec Linearcorder WR 3310 (Hugo Sachs Electronic).
The left coronary artery was occluded according to Selye H.'s method. In detail, after the chest of each rat was partially opened by left thoracotomy, the middle finger of the left hand was pressed against the right side of the chest of the rat to thrust out the heart which was then slightly fixed with the forefinger and the thumb of the same hand. Then, immediately after the left anterior descending coronary artery (LAD) was sutured with a 5-0 silk ligature, the heart was repositioned back in the thoracic cavity with both ends of the suture positioned outside. The ends of the suture were threaded through a PE tube (PE100, 2.5 cm) and allowed to stand for 20 min for stabilization. Through the cannula inserted into the femoral vein, a vehicle or the compounds of the invention were administered and 30 min was needed for sufficient effects of the administered compounds. Cariporide was used as a control. The ends of the suture threaded through the PE tube were pulled taut with hemostatic forceps to vertically press the PE tube against the coronary artery. After occlusion for 45 min, the hemostatic forceps were removed and reperfusion was conducted for 90 min.
The coronary artery was reoccluded in the same manner as described above, followed by the intravenous injection of 2 ml of 1% Evans blue. The intravenous injection of an excess of pentobarbital killed the rats, from which the hearts were then excised. The left ventricle was removed alone from the isolated heart and transected from the cardiac apex into 5 or 6 slices. Each slice was weighed. The image of each of the heart slices was captured using a Hi-scope, a compact vision system, and analyzed for blue-stained normal areas and non-stained areas with an image analyzing program (Image Pro Plus). In each slice, the area at risk (AAR) was calculated by multiplying the ratio of the non-stained area to the total area of the slice with the weight of the slice. Sum of the individual area at risk (AAR) for each slice was divided by the total weight of the left ventricle to obtain AAR (%) according to the following mathmatical formula 1.
Separately, the heat slices were incubated in 1%. 2,3,5-triphenyltetrazolium chloride (TTC) phosphate buffer (pH 7.4), 37° C., for 15 min and fixed in 10% formalin for 20˜24 hours. In the normal area of the tissue, 2,3,5-triphenyltetrazolium chloride was reduced by the myocardial dehydrogenase in the presence of the cofactor NADH to form formazan dye, which appeared as a brick-red color. […]

CS(=O)(=O)O.N#Cc1cccc2sc(C(=O)N=C(N)N)cc12 [Example 42, (4-Cyanobenzothiophene-2-Carbonyl)Guanidine Methanesulfonate]
LDH (free LDH level upon reperfusion) [1]: 14.7 u/g | LVEDP (left ventricular end-diastolic pressure) [1]: 6.0 mmHg | Myocardiac infarction rate (IS/AAR, %) ([2]; 0.1 mg/kg intravenous): 36.9% | Myocardiac infarction rate (IS/AAR, %) ([2]; 0.3 mg/kg intravenous): 34.4%
